Where a SMILES comes first, the peptide text is derived from it. Bridges are numbered along the chain shown (N, C = ends). [ ]: non-standard residue; d: D form. R8 = C=CCCCCCC[C@@](C)(N)C(=O)O; Cha = N[C@@H](CC1CCCCC1)C(=O)O; Chg = N[C@H](C(=O)O)C1CCCCC1; hLeu = CC(C)CC[C@H](N)C(=O)O; S5 = C=CCCC[C@](C)(N)C(=O)O; Nle = CCCC[C@H](N)C(=O)O; Ac3c = NC1(C(=O)O)CC1; Aib = CC(C)(N)C(=O)O
What was measured:
SJSA-1 cells = assay: Cell lysis by peptidomimetic macrocycles (LDH release); type: cell-based; details: 1 h at 37C
Protocol: On the day of the assay, media was exchanged with RPMI 1% FBS media, 90 uL of media per well.
10 mM stock solutions of the peptidomimetic macrocycles were prepared in 100% DMSO.
The negative control (non-lytic) sample was 0.5% DMSO alone and positive control (lytic) samples include 10 uM Melittin and 1% Triton X-100.
Cell plates were incubated for 1 hour at 37C. After the 1 hour incubation, the morphology of the cells is examined by microscope and then the plates were centrifuged at 1200 rpm for 5 minutes at room temperature. 40 uL of supernatant for each peptidomimetic macrocycle and control sample is transferred to clear assay plates.

Caspase 3 = Caspase 3 detection assay in SJSA1 cells; type: cell-based; details: 48 h, Caspase 3 activation over DMSO-treated cells
MDMX = target: T1, MDMX (Homo sapiens, UniProt O15151); assay: Competitive fluorescence polarization assay for MDMX; type: binding; details: competitive FP assay; for IC50: read-out: IC50 (MDMX); for Ki: read-out: Ki (MDMX)
T1 sequence (O15151 1-125): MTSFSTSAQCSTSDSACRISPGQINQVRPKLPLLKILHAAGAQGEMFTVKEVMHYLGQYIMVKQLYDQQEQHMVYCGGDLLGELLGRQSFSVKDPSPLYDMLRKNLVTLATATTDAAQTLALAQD
Protocol: Dilute MDMX (In-house, 40 kD) into FP buffer (High salt buffer-200 mM Nacl, 5 mM CHAPS, pH 7.5.) to make 300 nM (2×) working stock solution. • 2. […] Dilute 1 mM (in 100% DMSO) of FAM labeled linear peptide with DMSO to 100 μM (dilution 1:10). Then, dilute from 100 μM to 10 μM with water (dilution 1:10) and then dilute with FP buffer from 10 μM to 40 nM (dilution 1:250). This is the working solution which will be a 10 nM concentration in well (dilution 1:4). Keep the diluted FAM labeled peptide in the dark until use. • 4. […] Dilute 10 mM (in 100% DMSO) with DMSO to 5 mM (dilution 1:2). Then, dilute from 5 mM to 500 μM with H2O (dilution 1:10) and then dilute with FP buffer from 500 μM to 20 μM (dilution 1:25). […] Transfer 10 μl of serial diluted unlabeled peptides to each well which is filled with 20 μl of 300 nM of protein. • 7. Add 10 μl of 10 nM (4×) of FAM labeled peptide into each well and incubate for 3 hr to read.

MDM2 = MDM2 (Homo sapiens, UniProt Q00987); assay: Competitive fluorescence polarization assay for MDM2; type: binding; details: competitive FP assay, MDM2; for IC50: read-out: IC50 (MDM2); for Ki: read-out: Ki (MDM2)
MDM2, sequence (Q00987 1-125): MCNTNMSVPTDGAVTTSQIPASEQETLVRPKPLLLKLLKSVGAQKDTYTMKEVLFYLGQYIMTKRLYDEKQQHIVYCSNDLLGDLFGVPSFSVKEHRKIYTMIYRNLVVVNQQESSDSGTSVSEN

| SMILES | IC50 (MDMX) [µM] | Ki (MDMX) [µM] | IC50 (MDM2) [µM] | Ki (MDM2) [µM] | 6.25 uM % Lysed cells (1 h LDH) (SJSA-1 cells) [%] | 25 uM % Lysed cells (1 h LDH) (SJSA-1 cells) [%] | 50 uM % Lysed cells (1 h LDH) (SJSA-1 cells) [%] | caspase 0.3 uM (Caspase 3; 0.3 uM peptide) | caspase 3 uM (Caspase 3; 3 uM peptide) | caspase 10 uM (Caspase 3; 10 uM peptide) | caspase 30 uM (Caspase 3; 30 uM peptide) |
| --- | --- | --- | --- | --- | --- | --- | --- | --- | --- | --- | --- |
| CC[C@H](C)[C@H](NC(=O)[C@H](C)NC(=O)[C@H](C)NC(=O)[C@]1(C)CCCC=CCCCCCC[C@@](C)(NC(=O)[C@H](Cc2ccccc2)NC(=O)[C@@H](NC(=O)[C@H](CC(C)C)NC(C)=O)[C@@H](C)O)C(=O)N[C@@H](C)C(=O)N[C@@H](Cc2ccc(O)cc2)C(=O)N[C@@H](Cc2c[nH]c3ccccc23)C(=O)N[C@@H](C)C(=O)N[C@@H](CCC(N)=O)C(=O)N[C@@H](CC(C)C)C(=O)N1)C(=O)N[C@H](CC(C)C)C(N)=O (single isomer, unassigned) [compound 81] |  |  |  |  | 1 | 0 | 0 | 1 | 1 | 6 | 21 |
| CC(=O)N[C@@H](CC(C)C)C(=O)N[C@H](C(=O)N[C@@H](Cc1ccccc1)C(=O)N[C@]1(C)CCCCCCC=CCCC[C@@](C)(C(=O)N[C@@H](CO)C(=O)N[C@@H](C)C(=O)N[C@@H](CCC(C)C)C(N)=O)NC(=O)[C@H](CC(C)C)NC(=O)[C@H](CCC(N)=O)NC(=O)[C@H](C)NC(=O)[C@H](Cc2c[nH]c3ccccc23)NC(=O)[C@H](Cc2ccc(O)cc2)NC(=O)[C@H](C)NC1=O)[C@@H](C)O [compound 6] (Ac-LTF[R8]AYWAQL[S5]SA[hLeu]-NH2; staple 4-11) | 0.1 to 1 | 0.01 to 0.1 | 0.1 to 1 | 0.01 to 0.1 | 1 | 1 | 1 |  |  |  |  |
| CC(=O)N[C@@H](CC(C)C)C(=O)N[C@H](C(=O)N[C@@H](Cc1ccccc1)C(=O)N[C@]1(C)CCCCCCC=CCCC[C@@](C)(C(=O)N[C@@H](CO)C(=O)N[C@@H](C)C(=O)N[C@H](C(N)=O)C2CCCCC2)NC(=O)[C@H](CC(C)C)NC(=O)[C@H](CCC(N)=O)NC(=O)[C@H](C)NC(=O)[C@H](Cc2c[nH]c3ccccc23)NC(=O)[C@H](Cc2ccc(O)cc2)NC(=O)[C@H](C)NC1=O)[C@@H](C)O [compound 9] (Ac-LTF[R8]AYWAQL[S5]SA[Chg]-NH2; staple 4-11) | 0.1 to 1 | 0.01 to 0.1 | 0.1 to 1 | 0.01 to 0.1 | −3 | 0 | 2 |  |  |  |  |
| CC(=O)N[C@@H](Cc1ccccc1)C(=O)N[C@]1(C)CCCCCCC=CCCC[C@@](C)(C(=O)N[C@@H](C)C(=O)N[C@@H](C)C(=O)N[C@@H](CC(C)C)C(N)=O)NC(=O)[C@H](CC(C)C)NC(=O)C2(CC2)NC(=O)[C@H](CCC(=O)O)NC(=O)[C@H](Cc2c[nH]c3ccccc23)NC(=O)[C@H](Cc2ccc(O)cc2)NC(=O)[C@H](C)NC1=O [compound 15] (Ac-F[R8]AYWE[Ac3c]L[S5]AAL-NH2; staple 2-9) | 0.1 to 1 | 0.01 to 0.1 | 0.01 to 0.1 | 0.01 to 0.1 | 1 | 2 | 5 |  |  |  |  |
| CC(=O)N[C@@H](Cc1c[nH]cn1)C(=O)N[C@@H](CC(C)C)C(=O)N[C@H](C(=O)N[C@@H](Cc1ccccc1)C(=O)N[C@]1(C)CCCCCCC=CCCC[C@@](C)(C(=O)N[C@@H](C)C(=O)N[C@@H](C)C(=O)N[C@@H](CCC(C)C)C(=O)N[C@@H](C)C(N)=O)NC(=O)[C@H](CC(C)C)NC(=O)[C@H](CCC(N)=O)NC(=O)[C@H](Cc2c[nH]cn2)NC(=O)[C@H](Cc2c[nH]c3ccccc23)NC(=O)[C@H](Cc2c[nH]cn2)NC(=O)[C@H](Cc2c[nH]cn2)NC1=O)[C@@H](C)O [compound 32] (Ac-HLTF[R8]HHWHQL[S5]AA[hLeu]A-NH2; staple 5-12) | 0.1 to 1 | 0.01 to 0.1 | 0.01 to 0.1 | < 0.01 | 0 | 2 | 0 |  |  |  |  |
| CCCC[C@H](NC(=O)[C@H](C)NC(=O)[C@H](CCC(N)=O)NC(=O)[C@H](Cc1c[nH]cn1)NC(=O)[C@]1(C)CCCC=CCCCCCC[C@@](C)(NC(=O)[C@H](Cc2ccccc2)NC(C)=O)C(=O)N[C@@H](C)C(=O)N[C@@H](Cc2ccc(O)cc2)C(=O)N[C@@H](Cc2c[nH]c3ccccc23)C(=O)N[C@@H](CO)C(=O)N[C@@H](C)C(=O)N[C@@H](CC(C)C)C(=O)N1)C(N)=O [compound 39] (Ac-F[R8]AYWSAL[S5]HQA[Nle]-NH2; staple 2-9) | 0.1 to 1 | 0.1 to 1 | > 1 | 0.1 to 1 | 0 | 0 | 3 |  |  |  |  |
| CC(=O)N[C@@H](Cc1ccccc1)C(=O)N[C@]1(C)CCCCCCC=CCCC[C@@](C)(C(=O)N[C@@H](Cc2c[nH]cn2)C(=O)N[C@@H](CCCNC(=N)N)C(=O)N[C@@H](Cc2ccccc2)C(=O)N[C@@H](CC2CCCCC2)C(N)=O)NC(=O)[C@H](CC(C)C)NC(=O)[C@H](CCC(N)=O)NC(=O)[C@H](Cc2c[nH]cn2)NC(=O)[C@H](Cc2c[nH]c3ccccc23)NC(=O)[C@H](Cc2c[nH]cn2)NC(=O)[C@H](Cc2c[nH]cn2)NC1=O [compound 55] (Ac-F[R8]HHWHQL[S5]HRF[Cha]-NH2; staple 2-9) | > 1 | 0.1 to 1 | > 1 | 0.1 to 1 | 1 | 9 | 13 |  |  |  |  |
| CC(=O)N[C@@H](CC(C)C)C(=O)N[C@H](C(=O)N[C@@H](Cc1ccccc1)C(=O)N[C@]1(C)CCCCCCC=CCCC[C@@](C)(C(=O)N[C@@H](C)C(=O)N[C@@H](C)C(=O)N[C@@H](Cc2c[nH]c3ccccc23)C(=O)N[C@H](C)C(N)=O)NC(=O)[C@H](CC(C)C)NC(=O)[C@H](CCC(N)=O)NC(=O)[C@H](C)NC(=O)[C@H](Cc2c[nH]c3ccccc23)NC(=O)[C@H](Cc2ccc(O)cc2)NC(=O)[C@H](C)NC1=O)[C@@H](C)O [compound 211] (Ac-LTF[R8]AYWAQL[S5]AAW[dA]-NH2; staple 4-11) | 0.1 to 1 | 0.01 to 0.1 | < 0.01 | < 0.01 | 5 | 3 | 1 |  |  |  |  |

More lines, main results first:

| IC50 (MDMX) [µM] | Ki (MDMX) [µM] | IC50 (MDM2) [µM] | Ki (MDM2) [µM] | SMILES | 6.25 uM % Lysed cells (1 h LDH) (SJSA-1 cells) [%] | 25 uM % Lysed cells (1 h LDH) (SJSA-1 cells) [%] | 50 uM % Lysed cells (1 h LDH) (SJSA-1 cells) [%] | caspase 0.3 uM (Caspase 3; 0.3 uM peptide) | caspase 3 uM (Caspase 3; 3 uM peptide) | caspase 10 uM (Caspase 3; 10 uM peptide) | caspase 30 uM (Caspase 3; 30 uM peptide) |
| --- | --- | --- | --- | --- | --- | --- | --- | --- | --- | --- | --- |
| 0.01 to 0.1 | < 0.01 | < 0.01 | < 0.01 | CC[C@H](C)[C@H](NC(=O)[C@H](C)NC(=O)[C@H](C)NC(=O)[C@]1(C)CCCC=CCCCCCC[C@@](C)(NC(=O)[C@H](Cc2ccccc2)NC(=O)[C@@H](NC(=O)[C@H](CC(C)C)NC(C)=O)[C@@H](C)O)C(=O)N[C@@H](CCC(=O)O)C(=O)N[C@@H](Cc2ccc(C(=O)O)cc2)C(=O)N[C@@H](Cc2c[nH]c3cc(Cl)ccc23)C(=O)N[C@@H](C)C(=O)N[C@@H](CCC(N)=O)C(=O)N[C@@H](CC2CCC2)C(=O)N1)C(=O)N[C@H](C)C(N)=O (single isomer, unassigned) [compound 336] | 0 | 0 | 0 |  |  |  |  |
| 0.1 to 1 | 0.01 to 0.1 | 0.1 to 1 | 0.01 to 0.1 | CCCC[C@H](NC(=O)[C@H](C)NC(=O)[C@H](CO)NC(=O)[C@]1(C)CCCC=CCCCCCC[C@@](C)(NC(=O)[C@H](Cc2ccccc2)NC(=O)[C@@H](NC(=O)[C@H](CC(C)C)NC(C)=O)[C@@H](C)O)C(=O)N[C@@H](C)C(=O)N[C@@H](Cc2ccc(O)cc2)C(=O)N[C@@H](Cc2c[nH]c3ccccc23)C(=O)N[C@@H](C)C(=O)N[C@@H](CCC(N)=O)C(=O)N[C@@H](CC(C)C)C(=O)N1)C(N)=O [compound 3] (Ac-LTF[R8]AYWAQL[S5]SA[Nle]-NH2; staple 4-11) | 1 | 1 | 3 |  |  |  |  |
| 0.01 to 0.1 | < 0.01 | 0.01 to 0.1 | < 0.01 | CC(=O)N[C@@H](Cc1ccccc1)C(=O)N[C@]1(C)CCCCCCC=CCCC[C@@](C)(C(=O)N[C@@H](C)C(=O)N[C@@H](C)C(=O)N[C@@H](Cc2ccccc2)C(N)=O)NC(=O)[C@H](CC(C)C)NC(=O)C2(CC2)NC(=O)[C@H](CCC(=O)O)NC(=O)[C@H](Cc2c[nH]c3ccccc23)NC(=O)[C@H](Cc2ccc(O)cc2)NC(=O)[C@H](C)NC1=O [compound 18] (Ac-F[R8]AYWE[Ac3c]L[S5]AAF-NH2; staple 2-9) | 0 | 2 | 4 |  |  |  |  |
| 0.01 to 0.1 | 0.01 to 0.1 | 0.1 to 1 | 0.01 to 0.1 | CC[C@H](C)[C@H](NC(=O)[C@H](C)NC(=O)[C@H](C)NC(=O)[C@]1(C)CCCC=CCCCCCC[C@@](C)(NC(=O)[C@H](Cc2ccccc2)NC(C)=O)C(=O)N[C@@H](C)C(=O)N[C@@H](Cc2ccc(O)cc2)C(=O)N[C@@H](Cc2c[nH]c3ccccc23)C(=O)N[C@@H](CCC(=O)O)C(=O)NC2(CC2)C(=O)N[C@@H](CC(C)C)C(=O)N1)C(N)=O [compound 19] (Ac-F[R8]AYWE[Ac3c]L[S5]AAI-NH2; staple 2-9) | 2 | 3 | 21 |  |  |  |  |
| 0.01 to 0.1 | 0.01 to 0.1 | 0.01 to 0.1 | < 0.01 | CC(=O)N[C@@H](Cc1ccccc1)C(=O)N[C@]1(C)CCCCCCC=CCCC[C@@](C)(C(=O)N[C@@H](C)C(=O)N[C@@H](C)C(=O)NC(C)(C)C(N)=O)NC(=O)[C@H](CC(C)C)NC(=O)C2(CC2)NC(=O)[C@H](CCC(=O)O)NC(=O)[C@H](Cc2c[nH]c3ccccc23)NC(=O)[C@H](Cc2ccc(O)cc2)NC(=O)[C@H](C)NC1=O [compound 22] (Ac-F[R8]AYWE[Ac3c]L[S5]AA[Aib]-NH2; staple 2-9) | 0 | 0 | 0 |  |  |  |  |

From US8927500B2, “Peptidomimetic macrocycles” (Aileron Therapeutics, Inc., priority 2012, dated 2015)
